Laboratory results reported in publication PMC10747822 (Pharmaceutics, 2023).
Where a SMILES comes first, the peptide text is derived from it. [ ]: non-standard residue; d: D form. The star is where a group is joined. NH(4-amidinobenzyl) = N=C(N)c1ccc(CN*)cc1

Columns and labels:
[1] = Bench-top stability in mouse plasma; type: in vitro ADME; conditions: mouse plasma anti-coagulated with Li-heparin, minimally diluted, room temperature
Procedure: (§1) To investigate peptide stability, minimally diluted plasma or blood samples were generated through the addition of 10 µL of a spiking solution (50,000 ng/mL) to 490 µL of the pertinent biological matrix, resulting in a sample concentration of 1000 ng/mL. Samples (withdrawal of duplicates of 20 µL) were measured immediately after preparation and again after 1 and 2 h. Stability was evaluated via the comparison of peak area ratios of analyte and IS.
To determine which biological matrix is best suited for pharmacokinetic experiments in mice, we investigated the bench-top stability of Ac-[D-Leu]LLLRVK-amba in plasma and fresh whole blood at room temperature over a 2 h period (Figure 3). In plasma, anti-coagulated with Li-heparin, Ac-[D-Leu]LLLRVK-amba was very rapidly degraded.

[2] = Stability in human Li-heparin plasma; type: in vitro ADME; conditions: pooled human Li-heparin plasma, over at least 2 h; 1000 ng/mL, room temperature; UPLC-MS/MS
Procedure: as §1
(§2) Because an isotopically labeled analog of Ac-[D-Leu]LLLRVK-amba was used as IS, potential variations in (negligible) matrix effects can be efficiently balanced by the IS due to its identical physicochemical characteristics. As a consequence, whole blood from other species is appropriate for calibration and QC preparation. Therefore, whole blood from human donors was used for these purposes, which also helps to reduce animal sacrifice.

[3] = Stability in human whole blood; type: in vitro ADME; conditions: human whole blood (K-EDTA), over at least 2 h; 1000 ng/mL, room temperature; UPLC-MS/MS
Procedure: as §1, §2

[4] = Freeze-and-thaw stability in whole blood QC samples; type: in vitro ADME, human; conditions: for freeze-and-thaw stability, Accuracy [%]: one cycle
Procedure: Blood samples for calibration and QC purposes were generated through the addition of 25 µL of the pertinent spike solution to 20 µL of blank blood and the subsequent addition of 25 µL of IS solution. Calibration samples were produced at 10, 30, 100, 300, 1000, 3000, and 10,000 ng/mL, and QC samples were produced at concentrations of 10, 30, 3750, and 7500 ng/mL. For study sample processing, 20 µL of each sample was added to 25 µL of IS solution, and 25 µL of ACN/H2O 1/1 + 0.1% FA was added for volume compensation to ensure that sample preparation matches that of study blood samples. For stability reasons, each sample was immediately depleted from proteins by adding 150 µL ACN including 0.1% FA. Samples were processed individually and kept frozen until processing. Subsequently, samples were centrifuged at 13,200× g for 5 min. From the extracts, 10 µL was transferred to 400 µL of ACN/H2O 1/19 + 0.1% FA in wells of a 96-well collection plate (Waters, Milford, MA, USA).
The applicable recommendations for bioanalytical method validation of the FDA and EMA were applied to the validation of the assay. Accuracy was calculated as the percentage of the ratio of the mean of the determined concentrations and the nominal concentration. The acceptance limit is 100 ± 15%, with the exception of the LLOQ where it is 100 ± 20% Q. The assay precision was calculated as the coefficient of variation of the determined sample concentrations. It needs to be ≤15% in general and ≤20% at the LLOQ. Each validation run included blank and IS controls, seven calibration samples in duplicate determination, and four QC samples (LLOQ and low, mid, and high QC concentrations) in six-fold determination. Recovery of the whole blood extraction process was calculated from peak areas of QC samples divided by the peak areas obtained from blank blood spiked with the respective amount after processing. Assessment of matrix effects was performed by the ratio of peak areas of blank blood samples spiked after processing with the peak areas of UPLC solvent containing an identical amount of analyte. Stability of the analyte was investigated in freeze-and-thaw cycles separated by at least 24 h and at room temperature for testing bench-top stability.
as §2

[5] = 37 °C, 500 µg/mL; cited from earlier work
Procedure: However, these were conducted at a substantially higher concentration of Ac-[D-Leu]LLLRVK-amba of 500 µg/mL compared to the 1 µg/mL investigated here. […] Such lower stability in plasma compared to whole blood was already reported for several peptides.

LNCaP xenograft = conditions: cited from earlier work
Description: A major challenge in the development of peptide therapeutics is their susceptibility to enzymatic hydrolysis in biological systems. A primary mechanism of enzymatic degradation of small peptides in the systemic circulation is peptidase-mediated hydrolysis, especially of terminal amino acids by exopeptidase activity. Ac-[D-Leu]LLLRVK-amba comprises stability-enhancing modifications at both peptide termini: a D-amino acid at the N-terminus and an amba-moiety as a decarboxylated arginine variant at the C-terminus. Both modifications impair substrate properties for exopeptidases and thus inc ... || The pharmacokinetics of Ac-[D-Leu]LLLRVK-amba was already determined after intravenous bolus injection. With a half-life of only 9 min, this route of administration only produced a short period of potentially effective concentrations. […] Therefore, we aimed at flattening the pharmacokinetic profile with alternate routes of administr ...

For `CC(=O)N[C@H](CC(C)C)C(=O)N[C@@H](CC(C)C)C(=O)N[C@@H](CC(C)C)C(=O)N[C@@H](CC(C)C)C(=O)N[C@@H](CCCNC(=N)N)C(=O)N[C@H](C(=O)N[C@@H](CCCCN)C(=O)NCc1ccc(C(=N)N)cc1)C(C)C` [Ac-[D-Leu]LLLRVK-amba] (Ac-[dL]LLLRVK-{NH(4-amidinobenzyl)}), the half-life at 1000 ng/mL ([1]; CD-1, 1 µg/mL (1000 ng/mL), sampled at 0, 1 and 2 h, duplicates of 20 µL, UPLC-MS/MS peak area ratio analyte/IS, read-out: calculated half-life (t1/2) in plasma (converted)) was 28.8 min, the “calculated half-life (t1/2) in plasma” value ([1]; 1 µg/mL, 0, 1 and 2 h, duplicates, UPLC-MS/MS, same value given in min) was 29 min and the “degradation in human Li-heparin plasma” value [2] was “no detectable degradation”. For the same molecule, the “degradation in human whole blood” value [3] was “no detectable degradation”, the “freeze-and-thaw stability, accuracy” value ([4]; whole blood QC samples, one freeze-and-thaw cycle, range over QC levels, corresponding precision ≤14.0%, UPLC-MS/MS) was 91.5 to 98.3% and the “deviation after further freeze-and-thaw cycles” value ([4]; whole blood, more than one freeze-and-thaw cycle, cycles separated by at least 24 h) was greater than 15%. The “freeze-and-thaw stability, Accuracy [%]” value ([4]; whole blood, QC A, UPLC-MS/MS) was 91.5%, the “freeze-and-thaw stability, Accuracy [%]” value ([4]; whole blood, QC B, UPLC-MS/MS) was 91.6% and the “freeze-and-thaw stability, Accuracy [%]” value ([4]; whole blood, QC C, UPLC-MS/MS) was 98.3%. The “half-life in Na-heparin mouse plasma” value [5] was 18 h, the “efficacy in mouse xenograft models of prostate cancer” value (LNCaP xenograft; daily intravenous and intratumoral injection of 2 mg/kg) was “demonstrated” and the “efficacy in treating prostate cancer in LNCaP xenograft mice, by route” value (LNCaP xenograft; intratumoral vs intravenous administration) was “substantially higher when injected intratumorally than when administered intravenously”.
